Laboratory results reported in PubChem BioAssay (NCI).
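Test compounds were applied to cells in 96-well plates for 48 hours at 5 doses. Here, GI50 denotes the concentration required for 50% inhibition of growth. The concentration for full growth arrest is given as TGI.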

Assays:
Assay in all cases: DTP human tumour cell line panel, 48 h
786-0 renal = test system: 786-0 renal
A498 renal = test system: A498 renal
A549 NSCLC = test system: A549 NSCLC
ACHN renal = test system: ACHN renal
CAKI-1 renal = test system: CAKI-1 renal
CCRF-CEM leukemia = test system: CCRF-CEM leukemia
COLO 205 colon = test system: COLO 205 colon
DU-145 prostate = test system: DU-145 prostate
HCC-2998 colon = test system: HCC-2998 colon
HCT-116 colon = test system: HCT-116 colon
HCT-15 colon = test system: HCT-15 colon
HL-60(TB) leukemia = test system: HL-60(TB) leukemia
HOP-92 NSCLC = test system: HOP-92 NSCLC
HS 578T breast = test system: HS 578T breast
HT29 colon = test system: HT29 colon
IGROV1 ovarian = test system: IGROV1 ovarian
K-562 leukemia = test system: K-562 leukemia
M14 melanoma = test system: M14 melanoma
MCF7 breast = test system: MCF7 breast
MDA-MB-435 = test system: MDA-MB-435
MOLT-4 leukemia = test system: MOLT-4 leukemia
NCI-H226 lung = test system: NCI-H226 lung
NCI-H23 lung = test system: NCI-H23 lung
NCI-H460 lung = test system: NCI-H460 lung
NCI/ADR-RES ovarian = test system: NCI/ADR-RES ovarian
OVCAR-3 ovarian = test system: OVCAR-3 ovarian
OVCAR-4 ovarian = test system: OVCAR-4 ovarian
OVCAR-5 ovarian = test system: OVCAR-5 ovarian
OVCAR-8 ovarian = test system: OVCAR-8 ovarian
PC-3 prostate = test system: PC-3 prostate
RPMI-8226 leukemia = test system: RPMI-8226 leukemia
RXF 393 renal = test system: RXF 393 renal
SF-539 CNS = test system: SF-539 CNS
SK-MEL-28 melanoma = test system: SK-MEL-28 melanoma
SK-MEL-5 melanoma = test system: SK-MEL-5 melanoma
SK-OV-3 ovarian = test system: SK-OV-3 ovarian
SNB-19 CNS = test system: SNB-19 CNS
SNB-75 CNS = test system: SNB-75 CNS
SR leukemia = test system: SR leukemia
SW-620 colon = test system: SW-620 colon
T-47D breast = test system: T-47D breast
TK-10 renal = test system: TK-10 renal
U251 CNS = test system: U251 CNS
UACC-257 melanoma = test system: UACC-257 melanoma
UACC-62 melanoma = test system: UACC-62 melanoma
UO-31 renal = test system: UO-31 renal

SMILES: CCOP(=O)(OCC)OC[C@]12CCC(C)(C)C[C@H]1C1=CC[C@@H]3[C@@]4(C)C/C(=C\c5cccnc5)[C@H](OP(=O)(OCC)OCC)C(C)(C)[C@@H]4CC[C@@]3(C)[C@]1(C)CC2
- GI50 (786-0 renal): 1860 nM
- TGI (786-0 renal): 3890 nM
- GI50 (A498 renal): 1640 nM
- TGI (A498 renal): 4440 nM
- GI50 (A549 NSCLC): 2000 nM
- TGI (A549 NSCLC): 5590 nM
- GI50 (ACHN renal): 2300 nM
- TGI (ACHN renal): 7140 nM
- GI50 (CAKI-1 renal): 1090 nM
- TGI (CAKI-1 renal): 2650 nM
- GI50 (CCRF-CEM leukemia): 1770 nM
- TGI (CCRF-CEM leukemia): 4000 nM
- GI50 (COLO 205 colon): 1570 nM
- TGI (COLO 205 colon): 3320 nM
- GI50 (DU-145 prostate): 1750 nM
- TGI (DU-145 prostate): 3300 nM
- GI50 (HCC-2998 colon): 1590 nM
- TGI (HCC-2998 colon): 3030 nM
- GI50 (HCT-116 colon): 1250 nM
- TGI (HCT-116 colon): 2580 nM
- GI50 (HCT-15 colon): 1560 nM
- TGI (HCT-15 colon): 3430 nM
- GI50 (HL-60(TB) leukemia): 581 nM
- TGI (HL-60(TB) leukemia): 2300 nM
- GI50 (HOP-92 NSCLC): 1220 nM
- TGI (HOP-92 NSCLC): 2900 nM
- GI50 (HS 578T breast): 2060 nM
- TGI (HS 578T breast): 5380 nM
- GI50 (HT29 colon): 1520 nM
- TGI (HT29 colon): 3160 nM
- GI50 (IGROV1 ovarian): 2210 nM
- TGI (IGROV1 ovarian): 5610 nM
- GI50 (K-562 leukemia): 1180 nM
- TGI (K-562 leukemia): 3530 nM
- GI50 (M14 melanoma): 1800 nM
- TGI (M14 melanoma): 3700 nM
- GI50 (MCF7 breast): 1370 nM
- TGI (MCF7 breast): 3040 nM
- GI50 (MDA-MB-435): 1600 nM
- TGI (MDA-MB-435): 3230 nM
- GI50 (MOLT-4 leukemia): 715 nM
- TGI (MOLT-4 leukemia): 2420 nM
- GI50 (NCI-H226 lung): 1440 nM
- TGI (NCI-H226 lung): 3130 nM
- GI50 (NCI-H23 lung): 1610 nM
- TGI (NCI-H23 lung): 3290 nM
- GI50 (NCI-H460 lung): 1780 nM
- TGI (NCI-H460 lung): 3550 nM
- GI50 (NCI/ADR-RES ovarian): 2250 nM
- TGI (NCI/ADR-RES ovarian): 6050 nM
- GI50 (OVCAR-3 ovarian): 1680 nM
- TGI (OVCAR-3 ovarian): 3390 nM
- GI50 (OVCAR-4 ovarian): 1700 nM
- TGI (OVCAR-4 ovarian): 4370 nM
- GI50 (OVCAR-5 ovarian): 1790 nM
- TGI (OVCAR-5 ovarian): 3340 nM
- GI50 (OVCAR-8 ovarian): 2290 nM
- TGI (OVCAR-8 ovarian): 6520 nM
- GI50 (PC-3 prostate): 727 nM
- TGI (PC-3 prostate): 2770 nM
- GI50 (RPMI-8226 leukemia): 939 nM
- TGI (RPMI-8226 leukemia): 3330 nM
- GI50 (RXF 393 renal): 1190 nM
- TGI (RXF 393 renal): 2490 nM
- GI50 (SF-539 CNS): 1730 nM
- TGI (SF-539 CNS): 3200 nM
- GI50 (SK-MEL-28 melanoma): 1710 nM
- TGI (SK-MEL-28 melanoma): 3270 nM
- GI50 (SK-MEL-5 melanoma): 1420 nM
- TGI (SK-MEL-5 melanoma): 2730 nM
- GI50 (SK-OV-3 ovarian): 2100 nM
- TGI (SK-OV-3 ovarian): 5280 nM
- GI50 (SNB-19 CNS): 1660 nM
- TGI (SNB-19 CNS): 3140 nM
- GI50 (SNB-75 CNS): 1600 nM
- TGI (SNB-75 CNS): 3910 nM
- GI50 (SR leukemia): 1020 nM
- TGI (SR leukemia): 2780 nM
- GI50 (SW-620 colon): 1790 nM
- TGI (SW-620 colon): 3610 nM
- GI50 (T-47D breast): 1580 nM
- TGI (T-47D breast): 8350 nM
- GI50 (TK-10 renal): 2680 nM
- TGI (TK-10 renal): 6320 nM
- GI50 (U251 CNS): 1610 nM
- TGI (U251 CNS): 3200 nM
- GI50 (UACC-257 melanoma): 1640 nM
- TGI (UACC-257 melanoma): 4060 nM
- GI50 (UACC-62 melanoma): 1280 nM
- TGI (UACC-62 melanoma): 2880 nM
- GI50 (UO-31 renal): 1920 nM
- TGI (UO-31 renal): 6040 nM
